In patent US11964971B2, “Methods and compositions for modulating splicing” (Skyhawk Therapeutics, Inc., priority 2019, dated 2024):

Key:
SMN protein = SMN protein assay (MSD) in SMA patient fibroblasts (GM03813); type: cell-based, human
Method in brief: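 SMA patient fibroblasts GM03813 (7000 cells/well) treated 48 h with compounds from 2.5 μM to 0.6 nM. Lysate SMN protein quantified by MSD immunoassay against an SMN standard curve (1 to 19.5 μg/ml) on each plate, giving absolute amounts.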

[1] = test system: MDR1-MDCK cell monolayers; conditions: dog, MDCK-MDR1, 120 min, 5 μM, pH 7.4
MDR1 = assay: in vitro; conditions: dog; for Papp A→B at 120 min, 5 μM: MDCK-MDR1, pH 7.4, MDCK-MDR1: Papp A-B (10^−6, cm/s); for Papp B→A at 120 min, 5 μM: MDCK-MDR1, pH 7.4, MDCK-MDR1: Papp B-A (10^−6, cm/s)
MDR1 (P-gp) = assay: MDCK-MDR1 permeability assay, blood-brain-barrier penetration potential; conditions: dog, MDCK-MDR1, pH 7.4, MDCK-MDR1 Efflux Ratio

In the case of `CN(c1cnc(-c2ccc(-c3cc[nH]c(=O)c3)cc2O)cn1)[C@@H]1CC2CC[C@H](N2)[C@@H]1F` (single isomer, unassigned) [Compound 76E1], the EC50 (SMN protein) is reported as 51 to 100 nM, the “MDCK-MDR1: % Recov A-B (%)” value [1] is reported as 89% and the “MDCK-MDR1: % Recov B-A (%)” value [1] is reported as 75%. It also gave a Papp A→B at 120 min, 5 μM (MDR1) of 0.29 ×10⁻⁶ cm/s, a Papp B→A at 120 min, 5 μM (MDR1) of 30.1 ×10⁻⁶ cm/s and an efflux ratio at 120 min, 5 μM (MDR1 (P-gp)) of 102.
In the case of `CN(c1cnc(-c2cc(F)c(-n3ccnn3)cc2O)cn1)[C@@H]1CC2CC[C@H](N2)[C@@H]1F` (single isomer, unassigned) [Compound 21E1], the EC50 (SMN protein) is reported as 501 to 10000 nM, the “MDCK-MDR1: % Recov A-B (%)” value [1] is reported as 83% and the “MDCK-MDR1: % Recov B-A (%)” value [1] is reported as 91%. It also gave a Papp A→B at 120 min, 5 μM (MDR1) of 8.48 ×10⁻⁶ cm/s, a Papp B→A at 120 min, 5 μM (MDR1) of 43.5 ×10⁻⁶ cm/s and an efflux ratio at 120 min, 5 μM (MDR1 (P-gp)) of 5.
With `CNC(=O)c1cc(O)c(-c2cnc(N(C)[C@@H]3CC4CC[C@H](N4)[C@@H]3F)cn2)cc1F` (single isomer, unassigned) [Compound 15E1] the EC50 (SMN protein) was 501 to 10000 nM, the “MDCK-MDR1: % Recov A-B (%)” value [1] was 86% and the “MDCK-MDR1: % Recov B-A (%)” value [1] was 97%. For the same compound, the Papp A→B at 120 min, 5 μM (MDR1) was 2.74 ×10⁻⁶ cm/s, the Papp B→A at 120 min, 5 μM (MDR1) was 64.4 ×10⁻⁶ cm/s and the efflux ratio at 120 min, 5 μM (MDR1 (P-gp)) was 24.
In the case of `COc1cc(-c2ccc(-c3cnc(N(C)[C@H]4C[C@@H]5CCC(N5)[C@H]4F)cn3)c(O)c2)ccn1` (single isomer, unassigned) [Compound 43E2], the EC50 (SMN protein) is reported as 16 to 50 nM, the “MDCK-MDR1: % Recov A-B (%)” value [1] is reported as 12% and the “MDCK-MDR1: % Recov B-A (%)” value [1] is reported as 49%. It also gave a Papp A→B at 120 min, 5 μM (MDR1) of 0.98 ×10⁻⁶ cm/s, a Papp B→A at 120 min, 5 μM (MDR1) of 1.35 ×10⁻⁶ cm/s and an efflux ratio at 120 min, 5 μM (MDR1 (P-gp)) of 1.
In the case of `CN(c1cnc(-c2ccc(-c3cn[nH]c3)cc2O)cn1)[C@H]1CC2N[C@@H](C1)CC2(F)F` (single isomer, unassigned) [Compound 9E1], the EC50 (SMN protein) is reported as 501 to 10000 nM, the “MDCK-MDR1: % Recov A-B (%)” value [1] is reported as 60% and the “MDCK-MDR1: % Recov B-A (%)” value [1] is reported as 77%. It also gave a Papp A→B at 120 min, 5 μM (MDR1) of 17.9 ×10⁻⁶ cm/s, a Papp B→A at 120 min, 5 μM (MDR1) of 51.6 ×10⁻⁶ cm/s and an efflux ratio at 120 min, 5 μM (MDR1 (P-gp)) of 3.
With `Oc1cc(-n2ccnn2)c(F)cc1-c1cnc(N(C2CC2)[C@@H]2CC3CC[C@H](N3)[C@@H]2F)cn1` (single isomer, unassigned) [Compound 11E1] the EC50 (SMN protein) was 501 to 10000 nM, the “MDCK-MDR1: % Recov A-B (%)” value [1] was 74% and the “MDCK-MDR1: % Recov B-A (%)” value [1] was 83%. The Papp A→B at 120 min, 5 μM (MDR1) was 5.25 ×10⁻⁶ cm/s, the Papp B→A at 120 min, 5 μM (MDR1) was 35.9 ×10⁻⁶ cm/s and the efflux ratio at 120 min, 5 μM (MDR1 (P-gp)) was 7.
In the case of `Cc1cc(-c2ccc(-c3cnc(N(C)[C@@H]4CC5CC[C@H](N5)[C@@H]4F)cn3)c(O)c2)cc(=O)[nH]1` (single isomer, unassigned) [Compound 77E1], the EC50 (SMN protein) is reported as 501 to 10000 nM, the “MDCK-MDR1: % Recov A-B (%)” value [1] is reported as 64% and the “MDCK-MDR1: % Recov B-A (%)” value [1] is reported as 71%. It also gave a Papp A→B at 120 min, 5 μM (MDR1) of 0.34 ×10⁻⁶ cm/s, a Papp B→A at 120 min, 5 μM (MDR1) of 21.9 ×10⁻⁶ cm/s and an efflux ratio at 120 min, 5 μM (MDR1 (P-gp)) of 64.
For `Cn1cnc(-c2cc(O)c(-c3cnc(N(C4CC4)[C@H]4C[C@@H]5CCC(N5)[C@H]4F)cn3)cc2F)cc1=O` (single isomer, unassigned) [Compound 50E2], the EC50 (SMN protein) was 501 to 10000 nM, the “MDCK-MDR1: % Recov A-B (%)” value [1] was 81% and the “MDCK-MDR1: % Recov B-A (%)” value [1] was 90%. For the same compound, the Papp A→B at 120 min, 5 μM (MDR1) was 1.29 ×10⁻⁶ cm/s, the Papp B→A at 120 min, 5 μM (MDR1) was 49.3 ×10⁻⁶ cm/s and the efflux ratio at 120 min, 5 μM (MDR1 (P-gp)) was 38.
For `COc1cc(-c2cc(O)c(-c3cnc(N(C4CC4)[C@H]4C[C@@H]5CCC(N5)[C@H]4F)cn3)cc2F)cc(F)n1` (single isomer, unassigned) [Compound 37E2], the EC50 (SMN protein) was 501 to 10000 nM, the “MDCK-MDR1: % Recov A-B (%)” value [1] was 19% and the “MDCK-MDR1: % Recov B-A (%)” value [1] was 45%. For the same compound, the Papp A→B at 120 min, 5 μM (MDR1) was 0.94 ×10⁻⁶ cm/s, the Papp B→A at 120 min, 5 μM (MDR1) was 2.58 ×10⁻⁶ cm/s and the efflux ratio at 120 min, 5 μM (MDR1 (P-gp)) was 3.
`Cn1cc(-c2cc(O)c(-c3cnc(N(C4CC4)[C@H]4C[C@@H]5CCC(N5)[C@H]4F)cn3)cc2F)cn1` (single isomer, unassigned) [Compound 35E2] was tested, and the EC50 (SMN protein) was 501 to 10000 nM, the “MDCK-MDR1: % Recov A-B (%)” value [1] was 32% and the “MDCK-MDR1: % Recov B-A (%)” value [1] was 61%. The Papp A→B at 120 min, 5 μM (MDR1) was 4.64 ×10⁻⁶ cm/s, the Papp B→A at 120 min, 5 μM (MDR1) was 17.9 ×10⁻⁶ cm/s and the efflux ratio at 120 min, 5 μM (MDR1 (P-gp)) was 4.
`Cn1ccc(-c2ccc(-c3cnc(N(C4CC4)[C@H]4C[C@@H]5CCC(N5)[C@H]4F)cn3)c(O)c2)cc1=O` (single isomer, unassigned) [Compound 53E2] was tested, and the EC50 (SMN protein) was 501 to 10000 nM, the “MDCK-MDR1: % Recov A-B (%)” value [1] was 71% and the “MDCK-MDR1: % Recov B-A (%)” value [1] was 69%. The Papp A→B at 120 min, 5 μM (MDR1) was 1.61 ×10⁻⁶ cm/s, the Papp B→A at 120 min, 5 μM (MDR1) was 46.1 ×10⁻⁶ cm/s and the efflux ratio at 120 min, 5 μM (MDR1 (P-gp)) was 29.
For `CN(c1cnc(-c2ccc(-c3cnn(CF)c3)cc2O)cn1)[C@H]1C[C@@H]2CCC(N2)[C@H]1F` (single isomer, unassigned) [Compound 42E2], the EC50 (SMN protein) was 501 to 10000 nM, the “MDCK-MDR1: % Recov A-B (%)” value [1] was 44% and the “MDCK-MDR1: % Recov B-A (%)” value [1] was 60%. For the same compound, the Papp A→B at 120 min, 5 μM (MDR1) was 5.95 ×10⁻⁶ cm/s, the Papp B→A at 120 min, 5 μM (MDR1) was 31.8 ×10⁻⁶ cm/s and the efflux ratio at 120 min, 5 μM (MDR1 (P-gp)) was 5.
